# Reference: patent US4085114A, “1,2-Benzoisoxazole derivatives and the production thereof” (Shionogi & Co., Ltd., priority 1975, dated 1978)
# Key:
# in vivo = conditions: mouse, iv, female DS mice
# isolated atria = experiment: β-Blocking activities in the isolated atria (inhibition of positive inotropic effect of isoproterenol); assay type: cell-based, Guinea-pigs; conditions: Cavia porcellus, read-out: fifty percent inhibitory concentration on the positive inotropic effect of isoproterenol (IC50), 1. Atria
# Experimental: (§1) Guinea-pigs of either sex, weighing between 400 - 700 g each, were killed by a sharp blow on the head. Their atria and trachea were quickly excised and freed of excess tissues.
# 1. β-Blocking activities in the isolated atria:
# The isolated atria were mounted in a 30 ml organ bath filled with Krebs-Ringer-bicarbonate solution, which was constantly bubbled with a gas mixture of 95% oxygen and 5% carbon dioxide at 30° C. Spontaneous contractions of the atria were isometrically recorded on the polygraph (RM-150, Nihon Kohden Kogyo) by mean of a F-D pick-up (N. K. K.) and the number of contractions in one minute was recorded on the home-made pulse counter triggered by the atrial contractions.
# isolated trachea = experiment: β-Blocking activities in the isolated trachea (inhibition of isoproterenol-induced relaxation of tracheal chain); assay type: cell-based, Guinea-pigs; conditions: Cavia porcellus, read-out: fifty percent inhibitory concentration on the relaxation of tracheal chain by isoproterenol (IC50), 2. Trachea
# Description: as §1
Structure (SMILES),LD50 (in vivo) [mg/kg],IC50 (isolated atria) [ng/mL],IC50 (isolated trachea) [ng/mL]
"Cc1noc2cccc(OCC(O)CNC(C)(C)C)c12 (centres unmarked) [3-methyl-4-(2-hydroxy-3-tert-butylaminopropoxy)-1,2-benzisoxazole]",41.8,7.9,1.1
"Cc1noc2cccc(OCC(O)CNC(C)C)c12 (centres unmarked) [3-methyl-4-(2-hydroxy-3-isopropylaminopropoxy)-1,2-benzisoxazole]",45,25,
